Test systems include A549 NSCLC; DU-145 prostate; HS 578T breast; IGROV1 ovarian; KM20L2 colon; LXFL 529 NSCLC; MDA-MB-435; SK-MEL-2 melanoma; SNB-75 CNS; TK-10 renal.
What all share (test): NCI anticancer screen, dose series, 48 h

Values joined by “and” are separate entries in the source; they are usually repeats but may differ in a detail not shown here. Equal values may be shown once.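 Each compound was tested at five concentrations against cells in 96-well plates for 48 hours. At the GI50, growth is halved. TGI: concentration producing complete growth inhibition.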

As for `CN(C)CC1CCCC1=O` (stereo not drawn), the TGI was 49 µM in the experiment on A549 NSCLC; over 46900 nM in the experiment with DU-145 prostate; 56.2 µM with HS 578T breast; 21.5 µM in the experiment with IGROV1 ovarian; 5.32 µM with KM20L2 colon; 1400 nM with LXFL 529 NSCLC. In addition, the TGI in the experiment with MDA-MB-435 stood at 8.77 µM; in the experiment on SK-MEL-2 melanoma, 19.3 µM; in the experiment on SNB-75 CNS, 9.6 µM; with TK-10 renal it was 8.04 µM.
On to `C/C1=C\[C@@H](O)C(=O)/C=C/C=C\c2csc(n2)[C@@H](C)NC(=O)C[C@@]2(CC1)S(=O)SC(=O)[C@]2(C)O` (stereo partly drawn), for which the TGI in the experiment on A549 NSCLC is 0.713 µM and 0.368 µM; in the experiment on DU-145 prostate, 114 nM; in the experiment on HS 578T breast it was 0.435 µM; with IGROV1 ovarian it was 0.552 µM and 0.23 µM; in the experiment with KM20L2 colon, 0.636 µM and 0.599 µM; in the experiment with LXFL 529 NSCLC, 33.3 nM and 18.7 nM. The TGI in the experiment on MDA-MB-435 is 0.0562 µM; in the experiment on SK-MEL-2 melanoma, 0.0148 µM; in the experiment on SNB-75 CNS it was 0.0995 µM and 0.0219 µM; in the experiment with TK-10 renal it was 0.861 µM and 0.138 µM. The values for the GI50 in the experiment with IGROV1 ovarian and in the experiment on TK-10 renal were 23.7 nM and 13.1 nM, respectively.
As for `Cc1cc2c(c(C(=O)O)c1C)-c1cccc(F)c1C2=O`, the TGI is over 100 µM in the experiment with A549 NSCLC; over 100 µM in the experiment with IGROV1 ovarian; over 100 µM with KM20L2 colon; over 100000 nM with LXFL 529 NSCLC; over 100 µM in the experiment on SK-MEL-2 melanoma; over 100 µM in the experiment on SNB-75 CNS. Also, the TGI in the experiment with TK-10 renal is over 100 µM.
As for `CC1(C)OCC(C(O)C2OC(C)(C)OC2/C=N\O)O1` (stereo not drawn), the TGI was over 100 µM in the experiment with A549 NSCLC; over 100 µM in the experiment on IGROV1 ovarian; over 100 µM in the experiment with KM20L2 colon; over 100000 nM with LXFL 529 NSCLC; over 100 µM in the experiment on SK-MEL-2 melanoma; over 100 µM in the experiment on SNB-75 CNS. Further, the TGI in the experiment with TK-10 renal is over 100 µM.
As to `CC1CN1c1c(C(=O)/C=C/c2ccccc2)c(-c2ccccc2)nn(C)c1=O` (stereo not drawn), the TGI is 70.5 µM with A549 NSCLC; 59.8 µM in the experiment on IGROV1 ovarian; 36.2 µM in the experiment with KM20L2 colon; 28900 nM in the experiment with LXFL 529 NSCLC; 29.9 µM with SK-MEL-2 melanoma; 40 µM with SNB-75 CNS. Besides, the TGI with TK-10 renal turned out to be 61.4 µM.

Values taken from PubChem BioAssay (NCI).
